Drawing on PubChem BioAssay (NCI), this text covers TGI for eight compounds.

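Tested at 5 concentrations; 48 h exposure; 96-well plates; endpoints linearly interpolated, else capped at highest concentration. TGI marks complete inhibition of growth.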 Some results are limits rather than exact numbers.

Some test systems named below: OVCAR-5 ovarian; MDA-N; BT-549 breast; SF-268 CNS; NCI-H522 lung; SK-MEL-28 melanoma; K-562 leukemia; HCT-15 colon; COLO 205 colon; RPMI-8226 leukemia; HOP-92 NSCLC; SR leukemia; M14 melanoma; A498 renal; A549 NSCLC; UACC-257 melanoma; MDA-MB-231 breast.
Common to all, as to experiment: NCI anticancer screen, dose series, 48 h

`C(=Nc1ccc(-c2nc3ccccc3[nH]2)cc1)c1ccc[nH]1`: the TGI in the assay on OVCAR-5 ovarian, in the assay with MDA-N, with BT-549 breast, in the assay with SF-268 CNS, in the assay with NCI-H522 lung and with SK-MEL-28 melanoma was more than 100 µM in each case. The TGI in the assay with K-562 leukemia, in the assay with HCT-15 colon, in the assay on COLO 205 colon, in the assay with RPMI-8226 leukemia, in the assay on HOP-92 NSCLC and in the assay on SR leukemia was more than 100 µM throughout. In addition, the TGI with M14 melanoma, in the assay on A498 renal, in the assay on A549 NSCLC and with UACC-257 melanoma was more than 100 µM each time.
For `O=[N+]([O-])c1ccc(N/N=C/CC(O)(C(F)(F)F)C(F)(F)F)c([N+](=O)[O-])c1`, the TGI in the assay with MDA-N, in the assay with MDA-MB-231 breast, in the assay with SF-268 CNS, in the assay on NCI-H522 lung, with SK-MEL-28 melanoma and in the assay with K-562 leukemia was more than 10 µM each time. Moreover, the TGI in the assay with HCT-15 colon was more than 10 µM; in the assay with COLO 205 colon it was more than 10 µM; in the assay with RPMI-8226 leukemia it was more than 10 µM; with HOP-92 NSCLC, 6.59 µM; in the assay on SR leukemia it was more than 10 µM; in the assay with M14 melanoma, more than 10 µM. Further, the TGI in the assay with A498 renal, in the assay with A549 NSCLC and in the assay with UACC-257 melanoma was more than 10 µM throughout.
Regarding `COc1cc2cc(C(=O)N3CC(CCl)c4c3cc(NC(=O)OCc3ccc([N+](=O)[O-])cc3)c3ccccc43)[nH]c2c(OC)c1OC` (centres undefined), the TGI in the assay with OVCAR-5 ovarian was more than 100 µM; in the assay on MDA-N it was more than 100 µM; in the assay with MDA-MB-231 breast it was more than 81.5 µM; with BT-549 breast, more than 100 µM; with SF-268 CNS, more than 81.2 µM; with NCI-H522 lung it was more than 76.7 µM. The TGI in the assay on SK-MEL-28 melanoma is more than 100 µM; with HCT-15 colon, more than 100 µM; in the assay with COLO 205 colon it was more than 100 µM; with RPMI-8226 leukemia, more than 100 µM; in the assay with HOP-92 NSCLC it was more than 90.5 µM; in the assay with M14 melanoma it was more than 100 µM. The TGI with A549 NSCLC and in the assay with UACC-257 melanoma was more than 100 µM each time.
On to `COC(=O)CCc1ccc2c(c1)C(=O)CC2`, for which the TGI with OVCAR-5 ovarian, in the assay with MDA-N, with MDA-MB-231 breast, in the assay on SF-268 CNS, with NCI-H522 lung and in the assay on SK-MEL-28 melanoma was more than 100 µM each time. Also, the TGI with K-562 leukemia, in the assay on HCT-15 colon, in the assay on RPMI-8226 leukemia, with HOP-92 NSCLC, with SR leukemia and in the assay on M14 melanoma was more than 100 µM each time. Also, the TGI in the assay on A498 renal, in the assay with A549 NSCLC and in the assay with UACC-257 melanoma was more than 100 µM each time.
In the case of `CN(C)c1ccc(C=C2C(=O)N(c3ccccc3)N(c3ccccc3)C2=O)cc1`, the TGI in the assay with OVCAR-5 ovarian, in the assay with MDA-N, in the assay on MDA-MB-231 breast, in the assay with SF-268 CNS, with NCI-H522 lung and in the assay on SK-MEL-28 melanoma was more than 100 µM in each case. The TGI is more than 100 µM in the assay with K-562 leukemia; more than 100 µM in the assay with HCT-15 colon; more than 100 µM in the assay with COLO 205 colon; more than 100 µM in the assay on RPMI-8226 leukemia; 65.1 µM in the assay on HOP-92 NSCLC; more than 100 µM in the assay on SR leukemia. Also, the TGI with M14 melanoma, in the assay with A498 renal and in the assay with A549 NSCLC was more than 100 µM throughout.
`COc1cc(C2SC(C)C(=O)N2c2ccc(-c3csc(NS(=O)(=O)c4ccc(Cl)c(OC)c4)n3)cc2)ccc1O` (centres undefined): the TGI is more than 100 µM in the assay on OVCAR-5 ovarian; more than 100 µM with MDA-N; more than 100 µM with MDA-MB-231 breast; 84.6 µM in the assay with SF-268 CNS; 47.1 µM in the assay with NCI-H522 lung; more than 100 µM in the assay on SK-MEL-28 melanoma. For the same compound, the TGI in the assay with K-562 leukemia, in the assay with HCT-15 colon, in the assay with COLO 205 colon, with HOP-92 NSCLC, with SR leukemia and in the assay with M14 melanoma was more than 100 µM each time. The TGI with A498 renal, with A549 NSCLC and in the assay on UACC-257 melanoma was more than 100 µM in each case.
`CN(CCO)CCCC1COc2ccccc2O1` (centres undefined): the TGI in the assay on OVCAR-5 ovarian is more than 100 µM; in the assay with MDA-N, more than 100 µM; in the assay on BT-549 breast, more than 100 µM; in the assay on SF-268 CNS, 45.4 µM; with NCI-H522 lung, more than 100 µM; in the assay with SK-MEL-28 melanoma, more than 100 µM. For the same compound, the TGI in the assay with K-562 leukemia, in the assay on HCT-15 colon, in the assay with COLO 205 colon, in the assay on HOP-92 NSCLC, in the assay with SR leukemia and in the assay on M14 melanoma was more than 100 µM in each case. The TGI with A549 NSCLC and in the assay with UACC-257 melanoma was more than 100 µM each time.
With `O=c1[nH]c2ccccc2c(O)c1/C=N/C(=S)NCc1ccccc1`, the TGI in the assay with OVCAR-5 ovarian, in the assay with MDA-N, in the assay with MDA-MB-231 breast, in the assay with BT-549 breast, with SK-MEL-28 melanoma and with COLO 205 colon was more than 100 µM each time. The TGI with HOP-92 NSCLC, with M14 melanoma, in the assay with A549 NSCLC and with UACC-257 melanoma was more than 100 µM in each case.
